The target in the assay is T1, human GPBAR1 receptor (Homo sapiens, UniProt Q8TDU6).
T1 construct: expressed in transfected cells
T1 sequence (Q8TDU6 1-330): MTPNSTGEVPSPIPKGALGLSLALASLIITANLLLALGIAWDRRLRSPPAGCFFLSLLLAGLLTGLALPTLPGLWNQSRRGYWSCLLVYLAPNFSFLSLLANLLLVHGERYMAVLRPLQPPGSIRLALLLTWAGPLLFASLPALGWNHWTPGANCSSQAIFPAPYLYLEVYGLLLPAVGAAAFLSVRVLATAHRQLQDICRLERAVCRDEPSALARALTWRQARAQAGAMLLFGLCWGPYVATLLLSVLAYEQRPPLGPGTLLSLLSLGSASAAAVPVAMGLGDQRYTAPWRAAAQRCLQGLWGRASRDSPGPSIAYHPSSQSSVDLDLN
Kind of assay: functional cAMP assay in CHO-dhfr(minus) cells expressing human GPBAR1 receptors. It counts as cell-based. The note with it: 30 min at 30° C. Summed up: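 Agonist cAMP read-out: stable GPBAR1 CHO-dhfr− clone, 30 min compound exposure at 30° C following 30 min IBMX (1 mM) preincubation in Krebs Ringer bicarbonate. Time-resolved energy-transfer detection gives EC50; parental CHO cells serve as counter-screen.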

Where [1] appears, read: human EC50, functional cAMP assay.
Setting [2] is: functional cAMP assay, read-out: human EC50.

Read-outs that look alike come from different tables or passages of the source.

The EC50 is the concentration giving half of the maximal effect. Molecule `Cc1cc(Cl)ccc1C(C/C(=N\O)c1ccc(=O)n(C)c1)c1ccc(-c2ccc(C#N)cc2)cc1` (stereo not drawn) [Example 251, (E)-4′-(1-(4-Chloro-2-methylphenyl)-3-(hydroxyimino)-3-(1-methyl-6-oxo-1,6-dihydropyridin-3-yl)propyl)biphenyl-4-carbonitrile] registered an EC50 under setting [1] of 0.48 µM. With `Cc1ccccc1[C@H](C/C(=N\O)c1cc(Br)c(=O)n(C)c1)c1ccc(Br)cc1` [Example 252, 3-Bromo-5-{(R)-3-(4-bromo-phenyl)-1-[(E)-hydroxyimino]-3-o-tolyl-propyl}-1-methyl-1H-pyridin-2-one], under setting [2], the EC50 was 0.01 µM.

Regarding `COC(=O)CNC(=O)c1ccc(-c2ccc(C(C/C(=N\O)c3ccc(=O)n(C)c3)c3ccc(F)cc3C)cc2)cc1` (stereo not drawn) [Example 257, ({4′-[1-(4-Fluoro-2-methyl-phenyl)-3-[(E)-hydroxyimino]-3-(1-methyl-6-oxo-1,6-dihydro-pyridin-3-yl)-propyl]-biphenyl-4-carbonyl}-amino)-acetic acid methyl ester], it took 0.02 µM to reach a half-maximal effect under setting [1] (EC50).

Under setting [1], `Cc1cc(F)ccc1C(C/C(=N\O)c1ccc(=O)n(C)c1)c1ccc(-c2ccc(C(=O)NCC(=O)O)cc2)cc1` (stereo not drawn) [Example 258, ({4′-[1-(4-Fluoro-2-methyl-phenyl)-3-[(E)-hydroxyimino]-3-(1-methyl-6-oxo-1,6-dihydro-pyridin-3-yl)-propyl]-biphenyl-4-carbonyl}-amino)-acetic acid] came in with an EC50 of 0.01 µM. On the same count and under the same terms, as for `Cc1cc(F)ccc1C(C/C(=N\O)c1ccc(=O)n(C)c1)c1ccc(-c2ccc(N)cc2)cc1` (stereo not drawn) [Example 259, 5-{3-(4′-Amino-biphenyl-4-yl)-3-(4-fluoro-2-methyl-phenyl)-1-[(E)-hydroxyimino]-propyl}-1-methyl-1H-pyridin-2-one], the figure is 0.05 µM. The same measure, in the same setting: as for `Cc1cc(F)ccc1C(C/C(=N\O)c1ccc(=O)n(C)c1)c1ccc(-c2ccc(-c3nnn[nH]3)cc2)cc1` (stereo not drawn) [Example 260, 5-{3-(4-Fluoro-2-methyl-phenyl)-1-[(E)-hydroxyimino]-3-[4′-(1H-tetrazol-5-yl)-biphenyl-4-yl]-propyl}-1-methyl-1H-pyridin-2-one], the figure is 0.04 µM; as for `Cc1ccccc1[C@H](C/C(Cc1ccncc1)=N\O)c1ccc(Br)cc1` [Example 261, (E,R)-4-(4-bromophenyl)-1-(pyridin-4-yl)-4-o-tolylbutan-2-one oxime], 0.028 µM. Same read-out and setting: the figure for `Cc1ccccc1[C@H](C/C(Cc1ccncc1)=N/O)c1ccc(Br)cc1` [Example 262, (Z,R)-4-(4-bromophenyl)-1-(pyridin-4-yl)-4-o-tolylbutan-2-one oxime] is 0.278 µM; for `Cc1ccccc1[C@H](C/C(Cc1ccccn1)=N\O)c1ccc(Br)cc1` [Example 263, (E,R)-4-(4-bromophenyl)-1-(pyridin-2-yl)-4-o-tolylbutan-2-one oxime] it is 3.21 µM; for `Cc1cc(/C(C[C@H](c2ccc(N3CCOCC3)cc2)c2ccccc2C)=N/O)ccn1` [Example 264, (E,R)-1-(2-Methyl-pyridin-4-yl)-3-(4-morpholin-4-yl-phenyl)-3-o-tolyl-propan-1-one oxime] it is 0.002 µM. Regarding `CCOC(=O)C1CCN(c2ccc([C@@H](C/C(=N\O)c3ccnc(C)c3)c3ccccc3C)cc2)CC1` [Example 265, 1-{4-[(R)-3-[(E)-Hydroxyimino]-3-(2-methyl-pyridin-4-yl)-1-o-tolyl-propyl]-phenyl}-piperidine-4-carboxylic acid ethyl ester], a half-maximal effect under setting [1] (EC50) was put at 0.012 µM. Turning to `COCCN(C)c1ccc([C@@H](C/C(=N\O)c2ccnc(C)c2)c2ccccc2C)cc1` [Example 267, (E,R)-3-{4-[(2-Methoxy-ethyl)-methyl-amino]-phenyl}-1-(2-methyl-pyridin-4-yl)-3-o-tolyl-propan-1-one oxime], under setting [1], a half-maximal effect (EC50) was put at 0.018 µM. Still for that read-out and setting: as for `Cc1cc(/C(C[C@H](c2ccc(N(C)CCO)cc2)c2ccccc2C)=N/O)ccn1` [Example 268, (E,R)-3-{4-[(2-Hydroxy-ethyl)-methyl-amino]-phenyl}-1-(2-methyl-pyridin-4-yl)-3-o-tolyl-propan-1-one oxime], the figure is 0.013 µM. `Cc1cc(/C(C[C@H](c2ccc(N3CCC(CO)CC3)cc2)c2ccccc2C)=N/O)ccn1` [Example 269, (E,R)-3-[4-(4-Hydroxymethyl-piperidin-1-yl)-phenyl]-1-(2-methyl-pyridin-4-yl)-3-o-tolyl-propan-1-one oxime]: the EC50 under setting [1] amounted to 0.002 µM. As to `COC1CN(c2ccc([C@@H](C/C(=N\O)c3ccnc(C)c3)c3ccccc3C)cc2)C1` [Example 270, (E,R)-3-[4-(3-Methoxy-azetidin-1-yl)-phenyl]-1-(2-methyl-pyridin-4-yl)-3-o-tolyl-propan-1-one oxime], the EC50 under setting [2] was found to be 0.005 µM.

Under setting [1], `Cc1cc(/C(C[C@H](c2ccc(N3CCS(=O)(=O)CC3)cc2)c2ccccc2C)=N/O)ccn1` [Example 271, (E,R)-3-[4-(1,1-Dioxo-1λ6-thiomorpholin-4-yl)-phenyl]-1-(2-methyl-pyridin-4-yl)-3-o-tolyl-propan-1-one oxime] yielded an EC50 of 0.011 µM. For `Cc1cc(/C(C[C@H](c2ccc(C(=O)NCCO)cc2)c2ccccc2C)=N/O)ccn1` [Example 273, N-(2-Hydroxy-ethyl)-4-[(R)-3-[(E)-hydroxyimino]-3-(2-methyl-pyridin-4-yl)-1-o-tolyl-propyl]-benzamide], the concentration for a half-maximal effect (EC50) under setting [2] came to 0.031 µM.

Under setting [1], `Cc1cc(/C(C[C@H](c2ccc(C(=O)N(C)CCO)cc2)c2ccccc2C)=N/O)ccn1` [Example 274, N-(2-Hydroxy-ethyl)-4-[(R)-3-[(E)-hydroxyimino]-3-(2-methyl-pyridin-4-yl)-1-o-tolyl-propyl]-N-methyl-benzamide] came in with an EC50 of 0.08 µM. Still for that read-out and setting: as for `Cc1cc(/C(C[C@H](c2ccc(C(=O)NC[C@H](C)O)cc2)c2ccccc2C)=N/O)ccn1` [Example 275, 4-[(R)-3-[(E)-Hydroxyimino]-3-(2-methyl-pyridin-4-yl)-1-o-tolyl-propyl]-N—((S)-2-hydroxy-propyl)-benzamide], the figure is 0.026 µM; as for `Cc1cc(/C(C[C@H](c2ccc(C(=O)N[C@H]3CC[C@H](C(=O)O)CC3)cc2)c2ccccc2C)=N/O)ccn1` [Example 276, Trans-4-{4-[(R)-3-[(E)-Hydroxyimino]-3-(2-methyl-pyridin-4-yl)-1-o-tolyl-propyl]-benzoylamino}-cyclohexanecarboxylic acid], 0.059 µM.

Under setting [1], `Cc1cc(/C(C[C@H](c2ccc(C(=O)N(C)C)cc2)c2ccccc2C)=N/O)ccn1` [Example 277, 4-[(R)-3-[(E)-Hydroxyimino]-3-(2-methyl-pyridin-4-yl)-1-o-tolyl-propyl]-N,N-dimethyl-benzamide] gave an EC50 of 0.021 µM.

The molecule `CNC(=O)c1ccc([C@@H](C/C(=N\O)c2ccnc(C)c2)c2ccccc2C)cc1` [Example 278, 4-[(R)-3-[(E)-Hydroxyimino]-3-(2-methyl-pyridin-4-yl)-1-o-tolyl-propyl]-N-methyl-benzamide] registered a half-maximal effective concentration (EC50) under setting [1] of 0.015 µM. Still for that read-out and setting: the figure for `Cc1cc(/C(C[C@H](c2ccc(N3CC(C(=O)O)C3)cc2)c2ccccc2C)=N/O)ccn1` [Example 279, 1-{4-[(R)-3-[(E)-Hydroxyimino]-3-(2-methyl-pyridin-4-yl)-1-o-tolyl-propyl]-phenyl}-azetidine-3-carboxylic acid] is 0.011 µM; for `Cc1cc(/C(C[C@H](c2ccc(NCC(CCl)C(=O)O)cc2)c2ccccc2C)=N/O)ccn1` (stereo partly drawn) [Example 280, 2-Chloromethyl-3-{4-[(R)-3-[(E)-hydroxyimino]-3-(2-methyl-pyridin-4-yl)-1-o-tolyl-propyl]-phenylamino}-propionic acid] it is 0.019 µM. `Cc1cc(/C(C[C@@H](c2ccc(C(=O)O)cc2)c2ccc(Cl)cc2C)=N/O)ccn1` [Example 282, 4-[(S)-1-(4-Chloro-2-methyl-phenyl)-3-[(E)-hydroxyimino]-3-(2-methyl-pyridin-4-yl)-propyl]-benzoic acid] showed an EC50 under setting [1] of 0.648 µM. Still for that read-out and setting: as for `Cc1cc(/C(C[C@@H](c2ccc(C(=O)N(C)C)cc2)c2ccc(Cl)cc2C)=N/O)ccn1` [Example 283, 4-[(S)-1-(4-Chloro-2-methyl-phenyl)-3-[(E)-hydroxyimino]-3-(2-methyl-pyridin-4-yl)-propyl]-N,N-dimethyl-benzamide], the figure is 0.051 µM; as for `Cc1cc(/C(C[C@H](c2ccc(N3CCC(C(=O)O)CC3)cc2)c2ccc(Cl)cc2C)=N/O)ccn1` [Example 284, 1-{4-[(R)-1-(4-Chloro-2-methyl-phenyl)-3-[(E)-hydroxyimino]-3-(2-methyl-pyridin-4-yl)-propyl]-phenyl}-piperidine-4-carboxylic acid], 0.002 µM; as for `Cc1cc(/C(C[C@@H](c2ccc(N3CCC(C(=O)O)CC3)cc2)c2ccc(Cl)cc2C)=N/O)ccn1` [Example 285, 1-{4-[(S)-1-(4-Chloro-2-methyl-phenyl)-3-[(E)-hydroxyimino]-3-(2-methyl-pyridin-4-yl)-propyl]-phenyl}-piperidine-4-carboxylic acid], 0.004 µM. Same read-out and setting: the figure for `CCOC(=O)C(C(=O)OCC)c1ccc([C@H](C/C(=N\O)c2ccnc(C)c2)c2ccccc2C)cc1` [Example 286, 2-{4-[(S)-3-[(E)-Hydroxyimino]-3-(2-methyl-pyridin-4-yl)-1-o-tolyl-propyl]-phenyl}-malonic acid diethyl ester] is 2.41 µM; for `C#Cc1ccc([C@@H](CC(=NO)c2ccnc(C)c2)c2ccccc2C)cc1` [Example 287, (R)-3-(4-Ethynyl-phenyl)-1-(2-methyl-pyridin-4-yl)-3-o-tolyl-propan-1-one oxime] it is 0.002 µM.

Values taken from patent US8765730B2 (Hoffmann-La Roche Inc, priority 2010, dated 2014).
